In PMC5071857, “A unique peptide deformylase platform to rationally design and challenge novel active compounds” (Scientific Reports, 2016):
Read-outs that look alike come from different tables or passages of the source.

How the values were obtained:
E. coli AG100 = test: MIC by microdilution, E. coli AG100; type: cell-based; conditions: 18 h at 37 °C, average of three assays; for MIC: Escherichia coli, AG100, without PMBN; for MIC AG100: with PMBN at 1/5 of its MIC
Source text: (§1) Two E. coli strains, one B. subtilis strain, one S. aureus strain, one E. faecalis strain, one S. agalactiae strain and three Enterobacter aerogenes strains previously described were used. Briefly, AG100 was an E. coli wild type strain and AG100A its acrAB^- derivative. EA289 was a Kan^s derivative of an E. aerogenes multi-drug resistant (MDR) clinical isolate overexpressing AcrAB-TolC efflux pumps, and EA294 and EA298 its acrAB^- and tolC^- derivatives respectively. Strains were routinely grown at 37 °C on Luria-Bertani (LB) agar or in Mueller-Hinton II broth (MH), supplemented with kanamycine (50 μg.mL^−1) for AG100A, EA294 and EA298.
(§2) MIC values of antibiotics were determined by the microdilution method in liquid MH media in microplates in the absence or presence of chemosensitizers/modulators (e.g. PMBN, PAβN), as previously described. Permeabilization, blocking of efflux pumps, and isolates with different levels of porin or efflux expression were used to assess the involvement of the membrane barrier in antibiotic activity.
(§3) Susceptibilities were determined in 96-wells microplates with an inoculum of 2 × 10^5 cfu in 200 μL of MH broth containing two-fold serial dilutions of each antibiotics or compounds. Molecules were tested alone or in combination with other molecules in equimolar ratio. MICs were realized in the absence and in the presence of a membrane permeabilizer, the polymyxine B nonapeptide (PMBN) used at 51.2 mg/L (1/5 or 1/10 of its direct MIC previously determined). Actinonin and ciprofloxacin were used as internal antibiotic reference. […] Each test was systematically performed in triplicate. The average of three independent assays is presented in μg/mL in the respective tables.

E. faecalis EFA 103.214 = test: MIC, E. faecalis EFA 103.214; type: cell-based
Source text: as §1, §2, §3

EcPDF = target: T1, EcPDF (Escherichia coli, UniProt P0A6K3); test: PDF inhibition, formate dehydrogenase-coupled spectrophotometric assay (EcPDF); type: biochemical; conditions: for EcPDF KI/KI*app: enhancement potency (slow tight-binding)
T1 construct: made in house
T1 sequence (P0A6K3 whole entry): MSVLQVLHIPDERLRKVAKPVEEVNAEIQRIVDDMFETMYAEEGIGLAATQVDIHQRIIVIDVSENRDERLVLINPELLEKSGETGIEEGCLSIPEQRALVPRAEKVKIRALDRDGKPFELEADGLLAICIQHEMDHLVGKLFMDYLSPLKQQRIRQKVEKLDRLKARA
Procedure: (§4) The formate released by the deformylation reaction is used by FDH to convert NAD in NADH, the production of which being measured over time at 340 nm and controlled temperature (37 °C). The 200 μL reaction mixture contained 50 mM HEPES-NaOH pH7.5, 12 mM NAD^+, 4.5 U/mL FDH, 1 mM NiCl2 and PDF enzyme (either 40 nM SaPDF or 10 nM EcPDF or 100 nM AtPDF1B) previously diluted in presence of 0.1 mg/mL BSA. The reaction was started by addition of 1–6 mM Fo-Met-Ala-Ser. Kinetics parameters (kcat, Km) were derived from iterative non-linear least square fits using the Michaelis-menten equation based on the experimental data (Sigma-Plot, Kinetics module).
(§5) 1/KI*app is the slope of the v0/vi curve in function of compound concentration, where v0 and vi are the initial reaction rates in absence and presence of compound, respectively.
(§6) Determination of KI values was performed with a slightly modified protocol: reaction was started by addition of enzyme instead of Fo-Met-Ala-Ser, the latter being directly added to the mixture containing increasing concentrations of each compound. No pre-incubation of enzyme in presence of compound was done. 1/KI is the slope of the v0/vi curve in function of compound concentration, where v0 and vi are the initial reaction rates in absence and presence of compound respectively.

[1] = tested on: E. coli AG100A (AcrAB- derivative); test: MIC by microdilution, E. coli AG100A; type: cell-based; conditions: for MIC: Escherichia coli, 18 h, read-out: MIC AG100A; for MIC AG100A: with PMBN at 1/5 of its MIC, 18 h at 37 °C, average of three assays
Source text: as §1, §2, §3

S. aureus SA113 = test: MIC, S. aureus SA113; type: cell-based; conditions: Staphylococcus aureus
Source text: as §1, §2, §3

[2] = tested on: E. aerogenes Ea298, Ea289 derivative tolC-; test: MIC by microdilution, E. aerogenes Ea298; type: cell-based, Enterobacter aerogenes; conditions: for MIC Ea298: +PMBN at 1/5 of its MIC, average of three assays; for MIC: Klebsiella aerogenes, 18 h, read-out: MIC Ea298
Source text: as §1, §2, §3

[3] = tested on: E. aerogenes Ea289, MDR strain; test: MIC by microdilution, E. aerogenes Ea289; type: cell-based, Enterobacter aerogenes; conditions: for MIC Ea289: +PMBN at 1/5 of its MIC, average of three assays; for MIC: Klebsiella aerogenes, 18 h, read-out: MIC Ea289
Source text: as §1, §2, §3

[4] = tested on: E. aerogenes Ea294, Ea289 derivative AcrAB-; test: MIC by microdilution, E. aerogenes Ea294; type: cell-based, Enterobacter aerogenes; conditions: for MIC Ea294: +PMBN at 1/5 of its MIC, average of three assays; for MIC: Klebsiella aerogenes, 18 h, read-out: MIC Ea294
Source text: as §1, §2, §3

SaPDF [5] = target: T2, SaPDF (Streptococcus agalactiae serotype III, UniProt Q8E378, S2A); test: biochemical; conditions: SaPDF KI*app, PDFI pre-incubated with enzyme 10 min at 37 °C, started by 2 mM Fo-Met-Ala-Ser; 40 nM SaPDF
T2 construct: the recombinant protein contains all residues of the 204 amino acids mature protein; made in house; host or cells: E. coli Rosetta 2(DE3)pLysS
T2 sequence (Q8E378 whole entry S2A): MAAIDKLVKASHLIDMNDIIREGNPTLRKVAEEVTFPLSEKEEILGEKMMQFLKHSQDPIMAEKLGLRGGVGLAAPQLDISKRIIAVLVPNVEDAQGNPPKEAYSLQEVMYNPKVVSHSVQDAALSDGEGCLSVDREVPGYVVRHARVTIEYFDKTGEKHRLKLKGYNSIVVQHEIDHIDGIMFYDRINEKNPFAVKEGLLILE

AtPDF1B = target: T3, AtPDF1B (Arabidopsis thaliana, UniProt Q9FUZ2); test: PDF inhibition, formate dehydrogenase-coupled spectrophotometric assay (AtPDF1B); type: biochemical; conditions: 100 nM AtPDF1B; for IC50: 2 mM Fo-Met-Ala-Ser, 10 min pre-incubation at 37 °C; for Ki: PDFI pre-incubated with enzyme 10 min at 37 °C, read-out: AtPDF1B KI*app
T3 construct: made in house
T3 sequence (Q9FUZ2 83-273): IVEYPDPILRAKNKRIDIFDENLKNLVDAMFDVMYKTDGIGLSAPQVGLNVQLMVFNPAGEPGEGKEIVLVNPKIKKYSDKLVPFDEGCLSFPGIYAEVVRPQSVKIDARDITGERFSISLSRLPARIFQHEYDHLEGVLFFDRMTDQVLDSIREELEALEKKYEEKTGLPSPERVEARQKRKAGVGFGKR
Procedure: as §4, with “Enzymatic activity was measured by a spectrophotometric assay where peptide deformylase activity is coupled to that of formate dehydrogenase. The formate” for “The formate”
as §5, §6

SaPDF [6] = target: T2, SaPDF; test: biochemical; conditions: for Ki: SaPDF KI, no pre-incubation, assay initiated by addition of enzyme, 40 nM SaPDF, 37 °C; for SaPDF KI/KI*app: enhancement potency (slow tight-binding)
Procedure: as §4, with “Enzymatic activity was measured by a spectrophotometric assay where peptide deformylase activity is coupled to that of formate dehydrogenase. The formate” for “The formate”
as §5, §6

[7] = Enterococcus faecalis, EFA103.214, read-out: MIC E. faecalis EFA 103.214
[8] = 10 nM EcPDF, 2 mM Fo-Met-Ala-Ser, 10 min pre-incubation at 37 °C, read-out: IC50 EcPDF
[9] = EcPDF KI*app, PDFI pre-incubated with enzyme 10 min at 37 °C, started by 2 mM Fo-Met-Ala-Ser, 10 nM EcPDF
[10] = PDFI pre-incubated with enzyme 10 min at 37 °C, started by 2 mM Fo-Met-Ala-Ser, 10 nM EcPDF, read-out: EcPDF KI*app

| SMILES | MIC (E. coli AG100) [µg/mL] | MIC AG100 (E. coli AG100) [µg/mL] | MIC (E. faecalis EFA 103.214; [7]) [µg/mL] | IC50 (EcPDF; [8]) [nM] | MIC [1] [µg/mL] | MIC AG100A [1] [µg/mL] | MIC (S. aureus SA113) [µg/mL] | MIC Ea298 [2] [µg/mL] | MIC [2] [µg/mL] | MIC Ea289 [3] [µg/mL] | MIC [3] [µg/mL] | MIC Ea294 [4] [µg/mL] | MIC [4] [µg/mL] | Ki (SaPDF [5]) [nM] | IC50 (EcPDF) [nM] | Ki (EcPDF; [9]) [nM] | IC50 (AtPDF1B) [nM] | IC50 (SaPDF [6]) [nM] | also measured |
| --- | --- | --- | --- | --- | --- | --- | --- | --- | --- | --- | --- | --- | --- | --- | --- | --- | --- | --- | --- |
| CCCCC(CC(=O)NO)c1nc(-c2ccccc2)no1 (centres unmarked) [AT006] | > 64 | 64 | > 64 | 155 | > 64 | 32 | > 64 | – | – | – | – | – | – | – | – | – | – | – | – |
| CC(C)(O/N=C(\C(=O)N[C@@H]1C(=O)N2C(C(=O)[O-])=C(C[n+]3ccccc3)CS[C@H]12)c1csc(N)n1)C(=O)O [Ceftazidim, ceftazidime, reference compound] | – | – | – | – | – | – | – | 64 | > 128 | 64 | > 128 | 64 | > 128 | – | – | – | – | – | – |
| O=C(O)c1cn(C2CC2)c2cc(N3CCNCC3)c(F)cc2c1=O [Ciprofloxacin, ciprofloxacin, reference compound] | – | – | – | – | – | – | – | 4 | 8 | 64 | 64 | 8 | 16 | – | – | – | – | – | – |
| O=C(N[C@H](CO)[C@H](O)c1ccc([N+](=O)[O-])cc1)C(Cl)Cl [Chloramphenicol, chloramphenicol, reference compound] | – | – | – | – | – | – | – | 4 | 32 | 8 | > 128 | 4 | 32 | – | – | – | – | – | – |
| CCCC[C@H](CC(=O)NO)c1nc(Cc2ccc(OC(F)(F)F)cc2)no1 [AT013] | > 64 | 16 | > 64 | – | 32 | 4 | > 64 | 16 | 128 | 64 | > 128 | 16 | > 128 | 51 ± 3 | 78 ± 11 | 80 ± 10 | 500 ± 15 | 11 ± 1 | Ki (EcPDF; EcPDF KI, no pre-incubation, assay initiated by addition of enzyme, 10 nM EcPDF, 37 °C): 73 ± 12 nM; EcPDF KI/KI*app (EcPDF): 1; Ki (AtPDF1B; started by 2 mM Fo-Met-Ala-Ser): 303 ± 12 nM; Ki (SaPDF [6]): 70 ± 5 nM; SaPDF KI/KI*app (SaPDF [6]): 1 |
| CCCCC(CC(=O)NO)c1nc(-c2ccc([N+](=O)[O-])cc2)no1 (centres unmarked) [AT001] | > 64 | >64 | – | 160 | > 64 | 32 | – | – | – | – | – | – | – | – | – | – | – | – | – |
| CCCC[C@H](CC(=O)NO)c1nc(-c2ccccc2)co1 [AT003] | > 64 | 64 | > 64 | 190 | > 64 | 16 | > 64 | – | – | – | – | – | – | – | – | – | – | – | – |
| CCCCC(CC(=O)NO)c1nc(Cc2ccc3c(c2)OCO3)no1 (centres unmarked) [AT016] | > 64 | 64 | – | 10 ± 1 | 64 | 8 | > 64 | – | – | – | – | – | – | 55 ± 5 | – | – | – | 10 ± 2 | MIC (E. faecalis EFA 103.214; Enterococcus faecalis, EFA103.214; read-out: MIC E. faecalis EFA 103.214): > 64 µg/mL; Ki (EcPDF; [10]): 26 ± 5 nM; EcPDF KI/KI*app (EcPDF): 1; Ki (EcPDF; no pre-incubation, assay initiated by addition of enzyme, 10 nM EcPDF, 37 °C, read-out: EcPDF KI): 25 ± 3 nM; Ki (SaPDF [6]): 67 ± 7 nM; SaPDF KI/KI*app (SaPDF [6]): 1 |
| CCCC[C@H](CC(=O)NO)c1nc(Cc2ccc(C(=O)O)cc2)no1 [AT021] | – | – | – | – | – | – | – | – | – | – | – | – | – | 200 ± 10 | 75 ± 2 | 76 ± 5 | 8200 ± 1000 | 211 ± 10 | Ki (AtPDF1B): ~10000 nM |
| CCCCC(CC(=O)NO)c1nc(Cc2ccc(-c3ccccc3)cc2)no1 (centres unmarked) [AT014] | > 64 | 64 | > 64 | – | > 64 | 64 | > 64 | – | – | – | – | – | – | 65 ± 10 | 25 ± 4 | 66 ± 3 | 550 ± 25 | 16 ± 2 | Ki (AtPDF1B; started by 2 mM Fo-Met-Ala-Ser): 909 ± 32 nM; Ki (SaPDF [6]): 84 ± 6 nM; SaPDF KI/KI*app (SaPDF [6]): 1 |
| CCCCC(CC(=O)NO)c1nc(Cc2nc3ccccc3s2)no1 (centres unmarked) [AT017] | > 64 | 64 | > 64 | 30 ± 8 | 64 | 8 | > 64 | – | – | – | – | – | – | 85 ± 8 | – | – | – | 23 ± 4 | Ki (EcPDF; [10]): 41 ± 3 nM |
| CCCCC(CC(=O)NO)c1nc(Cc2ccc(C)cc2)no1 (centres unmarked) [AT012] | > 64 | 32 | > 64 | – | 64 | 8 | > 64 | – | – | – | – | – | – | 400 ± 35 | 27 ± 3 | 70 ± 8 | 460 ± 22 | 67 ± 5 | Ki (AtPDF1B; started by 2 mM Fo-Met-Ala-Ser): 625 ± 30 nM |
| CCCCC(CC(=O)NO)c1nc(C(=O)OCC)co1 (centres unmarked) [AT004] | > 64 | >64 | > 64 | 110 | > 64 | 32 | > 64 | – | – | – | – | – | – | – | – | – | – | – | – |
